Structures are written as SMILES. Converted amounts (≈) assume the structure as drawn. Where only a bound is given, the exact number is not on record here.

By kinetic solubility is commonly meant the concentration staying in solution when a stock, usually in DMSO, is diluted into the medium.

For this data set the following is noted: buffer; pH 7.4; 200.0 µM.
In the case of `COc1ccc(NC(C)=O)cc1NC(=O)c1ccc2ccccc2c1`, the solubility (kinetic) was 13 µg/mL (≈ 38.9 µM).
As to `COc1ccccc1NC(=O)COC(=O)C1CCCC1`, the kinetic solubility is greater than 41.6 µg/mL.
Turning to `CCCC1NC(=S)NC(C)=C1C(C)=O` (configuration not stated), the kinetic solubility was greater than 31.8 µg/mL.
In turn, `COc1cc(C(=S)N2CCCC2)ccc1OCc1ccc(C)cc1` had a solubility (kinetic) of less than 0.7 µg/mL.
`CC(Nc1ccc2c(c1)OCCO2)C(=O)Nc1ccc2c(c1)OCO2` (configuration not stated) gave a kinetic solubility greater than 51.4 µg/mL.
Take `COc1cccc(N=Cc2c(O)n(Cc3ccco3)c(=O)[nH]c2=O)c1`: the solubility (kinetic) worked out at 6.1 µg/mL (≈ 17.9 µM).
Regarding `Cc1ccc(N2C(=O)N(CC(=O)Nc3ccc([N+](=O)[O-])cc3)C(=O)C2C)cc1` (configuration not stated), the kinetic solubility was determined as 6 µg/mL (≈ 15.7 µM).
The same measure for `CCc1ccccc1NC(=O)Nc1ccon1`: 29.1 µg/mL (≈ 126 µM).
For `CN(CCO)c1cc(N(C)CCO)c([N+](=O)[O-])cc1[N+](=O)[O-]` the value was 42.1 µg/mL (≈ 134 µM).
In turn, `Cc1ccc(S(=O)(=O)NCc2c(-c3ccccc3)noc2C)cc1` displayed a kinetic solubility of 40.9 µg/mL (≈ 119 µM).
In turn, `O=C(O)C1CCCN(S(=O)(=O)Cc2ccccc2)C1` (configuration not stated) gave a kinetic solubility of 37.7 µg/mL (≈ 133 µM).
For `Cc1ccc(C)c(NC(=O)C(=O)NCCc2c[nH]c3ccccc23)c1` the value was 0.7 µg/mL (≈ 2.09 µM).
Compound `COc1ccc(C(=O)O)cc1S(=O)(=O)Nc1ccc(N2CCCCC2)cc1` registered a solubility (kinetic) of 54.7 µg/mL (≈ 140 µM).
With `C=CCn1c(O)c(C=NCCN2CCOCC2)c(=O)[nH]c1=S`, the solubility (kinetic) is greater than 48.7 µg/mL.
Consider `CCc1ccccc1Nc1nc(-c2cccnc2)cs1`, for which the kinetic solubility was found to be 3.6 µg/mL (≈ 12.8 µM).
As to `COc1cc(C(=O)NCCSc2ccccc2)cc(OC)c1OC`, the solubility (kinetic) worked out at 49.9 µg/mL (≈ 144 µM).
`Cc1ccc(C(=O)NCCNS(=O)(=O)c2ccccc2)cn1` had a kinetic solubility greater than 47.9 µg/mL.
In turn, `COc1cccc(N2CCN(C(=S)Nc3ccc(F)cc3)CC2)c1` showed a kinetic solubility of 0.6 µg/mL (≈ 1.74 µM).
`Nc1cc(-c2ccccc2)n2c(n1)nc1ccccc12`: the kinetic solubility is 5.7 µg/mL (≈ 21.9 µM).
Consider `Cc1ccc(-c2nc(-c3ccncc3)no2)c(C)c1`, for which the solubility (kinetic) worked out at 0.5 µg/mL (≈ 1.99 µM).
`Cc1ccccc1NC(=S)Nc1ccc2[nH]c(=O)[nH]c2c1` displayed a kinetic solubility of 41.7 µg/mL (≈ 140 µM).
Take `O=C(OCC(=O)c1ccccc1)C1=NN(c2ccccc2)C(=O)CC1`: the kinetic solubility is greater than 50.5 µg/mL.
The same measure for `Cc1ccc2nc(-c3ccccc3)c(-c3ccccc3)nc2c1`: less than 0.3 µg/mL.
As for `COc1ccc(Cl)cc1NC(=O)COC(=O)C1CCCCC1`, the solubility (kinetic) is 3.2 µg/mL (≈ 9.82 µM).
With `CC(C)(CC(=O)O)CC(=O)N1CCN(c2nc3cc(Cl)ccc3s2)CC1`, the kinetic solubility is greater than 59.4 µg/mL.
`N#CN(Cc1ccccc1)Cc1ccccc1` had a kinetic solubility of 18.6 µg/mL (≈ 83.7 µM).
The same measure for `Cc1ccsc1C(=O)NCc1ccc(F)cc1`: greater than 37.4 µg/mL; for `COc1ccc(OC)c(NC(=O)C2CC2c2ccccc2)c1` (configuration not stated): 18 µg/mL (≈ 60.5 µM); for `Cc1ccc(NC(=O)O/N=C/c2ccc(N(C)C)cc2)cc1`: 1.1 µg/mL (≈ 3.7 µM).
The compound `O=C(Nc1ccc2c(c1)OCO2)C(=O)c1c[nH]c2ccccc12` gave a solubility (kinetic) of 0.7 µg/mL (≈ 2.27 µM).
On to `CCN(C(=O)c1ccc(Br)o1)C1CCS(=O)(=O)C1` (configuration not stated), for which the kinetic solubility is greater than 50.4 µg/mL.
With `Cl.NCC12CC3CC(C1)CC(c1ccc(Cl)cc1)(C3)C2`, the solubility (kinetic) was greater than 46.8 µg/mL.
As for `Cc1ccc(C(=O)N/C(=C\c2cn(C)c3ccccc23)C(=O)OCCN(C)C)cc1`, the kinetic solubility was 58.9 µg/mL (≈ 145 µM).
In the case of `CC1CCC(NC(=O)Cn2cnc3sccc3c2=O)CC1` (configuration not stated), the kinetic solubility is greater than 45.8 µg/mL.
For `O=C(NCC(c1ccco1)N1CCOCC1)c1cccc(Cl)c1` (configuration not stated) the value was greater than 50.2 µg/mL.
Compound `COc1ccc(OCCn2cc(C=O)c3ccccc32)cc1` returned a solubility (kinetic) of 14.4 µg/mL (≈ 48.8 µM).
`CC1=CC(C)(C)NC(=S)N1c1cc(C)cc(C)c1`: the solubility (kinetic) is 8.7 µg/mL (≈ 33.4 µM).
The same measure for `O=C1NC(C(F)(F)F)(C(F)(F)F)N=C2SC=CN12`: 41.6 µg/mL (≈ 143 µM).
Consider `Cn1c(CO)nc2c3ccccc3ccc21`, for which the kinetic solubility was greater than 31.8 µg/mL.
With `Cl.Fc1ccc(-c2csc(Nc3ccccn3)n2)c(F)c1`, the kinetic solubility was less than 0.2 µg/mL.
In the case of `COc1ccc(CCNC(=O)CNC(=O)c2ccco2)cc1`, the kinetic solubility was greater than 45.3 µg/mL.
As to `COC(=O)Nc1nncs1`, the solubility (kinetic) is greater than 23.9 µg/mL.
For `CC(C)(CN1CCOCC1)NS(=O)(=O)c1ccccc1` the value was 38 µg/mL (≈ 127 µM); for `CC(=O)Nc1ccc(-c2nc3ccccc3c(=O)o2)cc1`, 0.5 µg/mL (≈ 1.78 µM).
`COc1ccc(NC(=O)CN(C)C(=O)c2ccc(=O)[nH]c2)cc1`: the solubility (kinetic) was greater than 47.3 µg/mL.
For `NS(=O)(=O)c1cccc(NC(=O)C2CC(=O)N(Cc3ccco3)C2)c1` (configuration not stated) the value was greater than 54.5 µg/mL; for `Cc1noc(NS(=O)(=O)c2ccc(NC(=O)c3ccc(F)cc3)cc2)c1C`, greater than 58.4 µg/mL.
In turn, `Cc1ccc(NC(=O)OCCNC(=O)c2ccncc2)cc1` came in with a solubility (kinetic) of 44.4 µg/mL (≈ 148 µM).
For `O=c1cc(COc2ccccc2[N+](=O)[O-])nc2sccn12` the value was 2.7 µg/mL (≈ 8.9 µM); for `CCn1cc(CCC(=O)NCCN2CCOCC2)c2ccccc21`, 48.9 µg/mL (≈ 148 µM).
For the compound `COC(=O)c1ccc(/C=N/OCC(=O)NCc2ccc(F)cc2)cc1`, the solubility (kinetic) was determined as 10.3 µg/mL (≈ 29.9 µM).
`CC1CCN(S(=O)(=O)c2ccccc2)CC1` displayed a solubility (kinetic) of 25.8 µg/mL (≈ 108 µM).
